This data set has as its system CCRIS mutagenicity, Ames/micronucleus/aberration tests. Nature of the data set: CCRIS mutagenicity studies.
The mark [1] stands for this setting: Test System: AMES SALMONELLA TYPHIMURIUM, Strain/Indicator: TA98, Metabolic Activation: HAMSTER, LIVER, S-9, AROCLOR 1254 (10%), Method: PREINCUBATION
Where [2] appears, read: Test System: AMES SALMONELLA TYPHIMURIUM, Strain/Indicator: TA98, Metabolic Activation: NONE, Method: PREINCUBATION
Setting [3] is: Test System: AMES SALMONELLA TYPHIMURIUM, Strain/Indicator: TA98, Metabolic Activation: RAT, LIVER, S-9, AROCLOR 1254 (10%), Method: PREINCUBATION
The mark [4] stands for this setting: Test System: AMES SALMONELLA TYPHIMURIUM, Strain/Indicator: TA100, Metabolic Activation: HAMSTER, LIVER, S-9, AROCLOR 1254 (10%), Method: PREINCUBATION
[5] abbreviates: Test System: AMES SALMONELLA TYPHIMURIUM, Strain/Indicator: TA100, Metabolic Activation: NONE, Method: PREINCUBATION
The mark [6] stands for this setting: Test System: AMES SALMONELLA TYPHIMURIUM, Strain/Indicator: TA100, Metabolic Activation: RAT, LIVER, S-9, AROCLOR 1254 (10%), Method: PREINCUBATION
Setting [7] is: Test System: AMES SALMONELLA TYPHIMURIUM, Strain/Indicator: TA1535, Metabolic Activation: HAMSTER, LIVER, S-9, AROCLOR 1254 (10%), Method: PREINCUBATION
Where [8] appears, read: Test System: AMES SALMONELLA TYPHIMURIUM, Strain/Indicator: TA1535, Metabolic Activation: NONE, Method: PREINCUBATION
Setting [9] is: Test System: AMES SALMONELLA TYPHIMURIUM, Strain/Indicator: TA1535, Metabolic Activation: RAT, LIVER, S-9, AROCLOR 1254 (10%), Method: PREINCUBATION
The mark [10] stands for this setting: Test System: AMES SALMONELLA TYPHIMURIUM, Strain/Indicator: TA1537, Metabolic Activation: HAMSTER, LIVER, S-9, AROCLOR 1254 (10%), Method: PREINCUBATION
[11] abbreviates: Test System: AMES SALMONELLA TYPHIMURIUM, Strain/Indicator: TA1537, Metabolic Activation: NONE, Method: PREINCUBATION
[12] abbreviates: Test System: AMES SALMONELLA TYPHIMURIUM, Strain/Indicator: TA1537, Metabolic Activation: RAT, LIVER, S-9, AROCLOR 1254 (10%), Method: PREINCUBATION

5 molecules from PubChem BioAssay AID1259407 (Chemical Carcinogenesis Research Information System (CCRIS), 2018) can be followed below.

The source made the active and inactive calls. How the calls were made is not given here.

`CNCCS(=O)(=O)O`: the mutagenic call is, setting by setting: under setting [1], “inactive; negative”; under setting [2], “inactive; negative”; under setting [3], “inactive; negative”; under setting [4], “inactive; negative”; under setting [5], “inactive; negative”; under setting [6], “inactive; negative”. Further, the mutagenic call is, setting by setting: under setting [7], “inactive; negative”; under setting [8], “inactive; negative”; under setting [9], “inactive; negative”; under setting [10], “inactive; negative”; under setting [11], “inactive; negative”; under setting [12], “inactive; negative”.

`C=CCNC(N)=S`: the mutagenic call by setting is: (Test System: AMES SALMONELLA TYPHIMURIUM, Strain/Indicator: TA97, Metabolic Activation: HAMSTER, LIVER, S-9, AROCLOR 1254 (10 OR 30%), Method: PREINCUBATION) “inactive; negative”; (Test System: AMES SALMONELLA TYPHIMURIUM, Strain/Indicator: TA97, Metabolic Activation: NONE, Method: PREINCUBATION) “inactive; negative”; (Test System: AMES SALMONELLA TYPHIMURIUM, Strain/Indicator: TA97, Metabolic Activation: RAT, LIVER, S-9, AROCLOR 1254 (10 OR 30%), Method: PREINCUBATION) “inactive; negative”; (Test System: AMES SALMONELLA TYPHIMURIUM, Strain/Indicator: TA98, Metabolic Activation: HAMSTER, LIVER, S-9, AROCLOR 1254 (10 OR 30%), Method: PREINCUBATION) “inactive; negative”; under setting [2], “inactive; negative”; (Test System: AMES SALMONELLA TYPHIMURIUM, Strain/Indicator: TA98, Metabolic Activation: RAT, LIVER, S-9, AROCLOR 1254 (10 OR 30%), Method: PREINCUBATION) “inactive; negative”. In addition, the mutagenic call is “inactive; negative” (Test System: AMES SALMONELLA TYPHIMURIUM, Strain/Indicator: TA100, Metabolic Activation: HAMSTER, LIVER, S-9, AROCLOR 1254 (10 OR 30%), Method: PREINCUBATION); “inactive; negative” under setting [5]; “inactive; negative” (Test System: AMES SALMONELLA TYPHIMURIUM, Strain/Indicator: TA100, Metabolic Activation: RAT, LIVER, S-9, AROCLOR 1254 (10 OR 30%), Method: PREINCUBATION); “inactive; negative” (Test System: AMES SALMONELLA TYPHIMURIUM, Strain/Indicator: TA1535, Metabolic Activation: HAMSTER, LIVER, S-9, AROCLOR 1254 (10 OR 30%), Method: PREINCUBATION); “inactive; negative” under setting [8]; “inactive; negative” (Test System: AMES SALMONELLA TYPHIMURIUM, Strain/Indicator: TA1535, Metabolic Activation: RAT, LIVER, S-9, AROCLOR 1254 (10 OR 30%), Method: PREINCUBATION).

On to `CCCCOC(=O)c1ccc(N)cc1`, for which the mutagenic call is, setting by setting: (Test System: AMES SALMONELLA TYPHIMURIUM, Strain/Indicator: TA98, Metabolic Activation: HAMSTER, LIVER, S-9, AROCLOR 1254, Method: PREINCUBATION) “inactive; negative”; under setting [2], “inactive; negative”; (Test System: AMES SALMONELLA TYPHIMURIUM, Strain/Indicator: TA98, Metabolic Activation: RAT, LIVER, S-9, AROCLOR 1254, Method: PREINCUBATION) “inactive; negative”; (Test System: AMES SALMONELLA TYPHIMURIUM, Strain/Indicator: TA100, Metabolic Activation: HAMSTER, LIVER, S-9, AROCLOR 1254, Method: PREINCUBATION) “inactive; negative”; under setting [5], “inactive; negative”; (Test System: AMES SALMONELLA TYPHIMURIUM, Strain/Indicator: TA100, Metabolic Activation: RAT, LIVER, S-9, AROCLOR 1254, Method: PREINCUBATION) “inactive; negative”. The mutagenic call (Test System: AMES SALMONELLA TYPHIMURIUM, Strain/Indicator: TA1535, Metabolic Activation: HAMSTER, LIVER, S-9, AROCLOR 1254, Method: PREINCUBATION) is “inactive; negative”; the mutagenic call under setting [8] is “inactive; negative”; the mutagenic call (Test System: AMES SALMONELLA TYPHIMURIUM, Strain/Indicator: TA1535, Metabolic Activation: RAT, LIVER, S-9, AROCLOR 1254, Method: PREINCUBATION) was “inactive; negative”; the mutagenic call (Test System: AMES SALMONELLA TYPHIMURIUM, Strain/Indicator: TA1537, Metabolic Activation: HAMSTER, LIVER, S-9, AROCLOR 1254, Method: PREINCUBATION) was “inactive; negative”; the mutagenic call under setting [11] is “inactive; negative”; the mutagenic call (Test System: AMES SALMONELLA TYPHIMURIUM, Strain/Indicator: TA1537, Metabolic Activation: RAT, LIVER, S-9, AROCLOR 1254, Method: PREINCUBATION) was “inactive; negative”.

`CON`: the mutagenic call runs as follows: under setting [1], “inactive; negative”; under setting [2], “inactive; negative”; under setting [3], “inactive; negative”; under setting [4], “inactive; negative”; under setting [5], “inactive; negative”; under setting [6], “inactive; negative”. For the same molecule, the mutagenic call reads like this: under setting [7], “inactive; negative”; under setting [8], “inactive; negative”; under setting [9], “inactive; negative”; under setting [10], “inactive; negative”; under setting [11], “inactive; negative”; under setting [12], “inactive; negative”.

As to `O[C@H]1C=Cc2ccc3nc4ccc5ccccc5c4cc3c2[C@@H]1O`, the mutagenic call was “active; positive” (Test System: AMES SALMONELLA TYPHIMURIUM, Strain/Indicator: TA98, Metabolic Activation: GUINEA PIG, LIVER, S-9, 3-METHYLCHOLANTHRENE, Method: STANDARD PLATE); “active; positive” (Test System: AMES SALMONELLA TYPHIMURIUM, Strain/Indicator: TA100, Metabolic Activation: GUINEA PIG, LIVER, S-9, 3-METHYLCHOLANTHRENE, Method: STANDARD PLATE); “active; positive” (Test System: CHINESE HAMSTER V-79, Strain/Indicator: V-79/6-THIOGUANINE, Metabolic Activation: GUINEA PIG, LIVER, S-9, 3-METHYLCHOLANTHRENE).
